Data on twelve compounds can be found in PubChem BioAssay (NCI).

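Step 1: Grow cells in 96-well plates. Step 2: Expose to compound for 48 hours at 5 concentrations. Step 3: Interpolate endpoints linearly; if unreached, use highest concentration. TGI marks complete inhibition of growth.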

Some test systems named below: SR leukemia; SK-MEL-28 melanoma; NCI-H23 lung; BT-549 breast; MDA-MB-435; HT29 colon; A549 NSCLC; HCC-2998 colon; M14 melanoma; NCI-H460 lung; LOX IMVI melanoma; UACC-62 melanoma; RXF 393 renal.
Holding throughout (assay): NCI-60 cell line screen, 48 h

For the compound `COc1ccc(C[C@@H]2CN(C(=O)c3ccccc3)[C@H](Cc3ccc(O)cc3)CN2C(=O)c2ccccc2)cc1Br`, the TGI with SR leukemia, in the assay on SK-MEL-28 melanoma, in the assay on NCI-H23 lung, in the assay on BT-549 breast, in the assay with MDA-MB-435 and with HT29 colon was more than 100 µM in each case. Besides, the TGI in the assay on A549 NSCLC, with HCC-2998 colon, in the assay with M14 melanoma, in the assay with NCI-H460 lung and in the assay with LOX IMVI melanoma was more than 100 µM in each case.

Turning to `COc1ccc(-n2c(CCCC(=O)O)nc3c2C(=O)c2ccccc2C3=O)cc1`, the TGI is more than 100 µM in the assay with SR leukemia; more than 100 µM in the assay on SK-MEL-28 melanoma; more than 100 µM in the assay with NCI-H23 lung; more than 100 µM in the assay with BT-549 breast; 78.9 µM in the assay on MDA-MB-435; more than 100 µM with UACC-62 melanoma. In addition, the TGI in the assay on A549 NSCLC was more than 100 µM; with HCC-2998 colon, more than 100 µM; in the assay on M14 melanoma, 39 µM; with NCI-H460 lung it was more than 100 µM; with LOX IMVI melanoma, more than 100 µM.

With `COc1ccc2c(c1O)-c1c(OC)c(OC)cc3c1[C@H](C2)[N+](C)(C)CC3`, the TGI in the assay with SK-MEL-28 melanoma, in the assay with NCI-H23 lung, with BT-549 breast, with MDA-MB-435, in the assay with UACC-62 melanoma and in the assay with HT29 colon was more than 100 µM in each case. The TGI with A549 NSCLC, in the assay with HCC-2998 colon, with M14 melanoma, in the assay on NCI-H460 lung and in the assay with LOX IMVI melanoma was more than 100 µM throughout.

`Cc1cc(-c2ccc(C(=O)C(Cl)(Cl)Cl)[nH]2)on1`: the TGI was more than 100 µM with SK-MEL-28 melanoma; 54.3 µM in the assay with NCI-H23 lung; 98.1 µM in the assay on BT-549 breast; 70.6 µM in the assay on MDA-MB-435; 41.9 µM with RXF 393 renal; more than 100 µM in the assay with UACC-62 melanoma. Besides, the TGI with HT29 colon was 76.8 µM; in the assay with A549 NSCLC, more than 100 µM; with M14 melanoma, more than 100 µM; in the assay with NCI-H460 lung, 21.8 µM; with LOX IMVI melanoma it was more than 100 µM.

As for `CSc1nc2c(c(N(C)C)n1)C=Nn1c(nc3ccccc31)S2`, the TGI in the assay on SK-MEL-28 melanoma, in the assay with NCI-H23 lung, with BT-549 breast, in the assay with MDA-MB-435, in the assay on RXF 393 renal and with UACC-62 melanoma was more than 100 µM each time. Further, the TGI in the assay with HT29 colon, in the assay with A549 NSCLC, in the assay with HCC-2998 colon, in the assay with M14 melanoma, in the assay on NCI-H460 lung and in the assay on LOX IMVI melanoma was more than 100 µM in each case.

Regarding `CC(C)(C)C1CCC2c3c([nH]c4ccccc34)C3C(=O)N(c4cc(Br)cc(Br)c4)C(=O)C3C2C1` (stereo unspecified), the TGI in the assay on SR leukemia was 82.4 µM; in the assay with SK-MEL-28 melanoma, 25.9 µM; in the assay on NCI-H23 lung, 63.3 µM; in the assay with BT-549 breast, more than 100 µM; with MDA-MB-435, 77.2 µM; with UACC-62 melanoma it was more than 100 µM. The TGI in the assay with HT29 colon was more than 100 µM; with A549 NSCLC, more than 100 µM; in the assay with HCC-2998 colon, 24.7 µM; in the assay on M14 melanoma it was more than 100 µM; with NCI-H460 lung, 74.2 µM; with LOX IMVI melanoma, more than 100 µM.

Consider `CCOC(=O)c1ccc(NC2Oc3cc4c(cc3C(c3cc(OC)c(OC)c(OC)c3)C2C)OCO4)cc1` (stereo unspecified), for which the TGI in the assay with SK-MEL-28 melanoma is more than 100 µM; in the assay with NCI-H23 lung, more than 67.3 µM; in the assay with BT-549 breast it was 6.76 µM; in the assay with MDA-MB-435, 0.448 µM; in the assay with RXF 393 renal it was 93.9 µM; with UACC-62 melanoma, 64.5 µM. Besides, the TGI with HT29 colon is 12.9 µM; in the assay on A549 NSCLC it was more than 73.2 µM; with HCC-2998 colon, 6.32 µM; with M14 melanoma, more than 50.9 µM; with NCI-H460 lung, more than 100 µM; with LOX IMVI melanoma, 32.9 µM.

For the compound `COc1c2nc(CCl)n(C)c(=O)c2c(OC)c2c(=O)n(C)c(CCl)nc12`, the TGI in the assay on SK-MEL-28 melanoma was 3.94 µM; in the assay on NCI-H23 lung, 3.4 µM; with BT-549 breast, 1.96 µM; with MDA-MB-435 it was 7.65 µM; in the assay on RXF 393 renal, 4.14 µM; in the assay on HT29 colon, 2.87 µM. In addition, the TGI with A549 NSCLC came to 13.3 µM; in the assay on HCC-2998 colon it was 2.65 µM; in the assay on NCI-H460 lung, 4.66 µM; in the assay on LOX IMVI melanoma, 1.75 µM.

With `COc1c(C2(c3ccc(F)cc3)SCCCS2)c(=O)c1=O`, the TGI in the assay with SK-MEL-28 melanoma, in the assay on NCI-H23 lung, with BT-549 breast, with MDA-MB-435, in the assay on RXF 393 renal and with UACC-62 melanoma was more than 100 µM throughout. The TGI in the assay on HT29 colon, in the assay with A549 NSCLC, in the assay on HCC-2998 colon, with M14 melanoma, in the assay on NCI-H460 lung and in the assay with LOX IMVI melanoma was more than 100 µM throughout.

Take `CC12CC3c4ccccc4CN1C3(c1ccccc1)OC2=O` (stereo unspecified): the TGI in the assay with SK-MEL-28 melanoma, in the assay with NCI-H23 lung, in the assay with BT-549 breast, with MDA-MB-435, with RXF 393 renal and with UACC-62 melanoma was more than 100 µM in each case. Further, the TGI in the assay with HT29 colon, in the assay on A549 NSCLC, in the assay with M14 melanoma and in the assay on LOX IMVI melanoma was more than 100 µM throughout.

Take `N#Cc1c(-c2ccco2)c2c(n(C3OC(CO)C(O)C(O)C3O)c1=S)CCCC2` (stereo unspecified): the TGI with SR leukemia, with SK-MEL-28 melanoma, with NCI-H23 lung, in the assay on MDA-MB-435, in the assay with RXF 393 renal and in the assay on UACC-62 melanoma was more than 100 µM throughout. The TGI in the assay on HT29 colon, with A549 NSCLC, with HCC-2998 colon, in the assay with M14 melanoma, in the assay with NCI-H460 lung and with LOX IMVI melanoma was more than 100 µM throughout.

As to `O=c1cnn(C2OC(CO)C(O)C(F)C2O)c(=O)[nH]1` (stereo unspecified), the TGI in the assay with SR leukemia, in the assay with SK-MEL-28 melanoma, in the assay on NCI-H23 lung, with BT-549 breast, in the assay on MDA-MB-435 and with UACC-62 melanoma was more than 100 µM in each case. The TGI in the assay with HT29 colon, in the assay on A549 NSCLC, with HCC-2998 colon, in the assay on M14 melanoma, in the assay on NCI-H460 lung and in the assay on LOX IMVI melanoma was more than 100 µM each time.
